Reference: publication PMC11184559, “Identification and Validation of Compounds Targeting Leishmania major Leucyl-Aminopeptidase M17” (ACS Infectious Diseases, 2024)
Values joined by “and” are separate entries in the source; they are usually repeats but may differ in a detail not shown here. Identical values can stand only once.

Legend:
[1] = target: rLmLAP (Leishmania major, UniProt Q7KF27); test: RapidFire-MS aminopeptidase activity assay: inhibition of rLmLAP (LSTVIVR substrate); format: biochemical; conditions: for IC50: RapidFire-MS, 5 nM enzyme, 10 μM LSTVIVR, 20 min preincubation, 0.195-100 μM, mean ± standard error (n = 3)
Protocol: Assays were carried out as previously described,[24] with some differences indicated below. The reaction mix consisted of 0 nM (control) and 30 nM rLmLAP in 1× PBS, pH 7.0, 0.005% (v/v) NP-40, plus 7.5 μL of LSTVIVR substrate peptide in the same buffer. For product quantification, the peak areas of the LSTVIVR peptide were integrated with respect to the internal standard LSTVIVR* peptide. The C-terminal arginine was chosen because this amino acid is amenable to isotopic labeling.[45]
rLmLAP was assayed at 5 nM with 10 μM (1× appKM) of LSTVIVR substrate peptide. The enzyme was preincubated with bestatin or DMSO for 20 min. Bestatin was prepared at 10 concentrations in DMSO, covering the range from 0.39 to 100 μM. […] The remaining experimental conditions were maintained, as described above.
A high-throughput screen was conducted against rLmLAP using 3,383 compounds with known protease inhibitor motifs. The compounds were dispensed onto plates using an ECHO 550 acoustic dispenser (Labcyte, Sunnyvale, CA). The enzyme was assayed at 5 nM with 10 μM (1× appKM) LSTVIVR substrate for 60 min. Before adding the substrate, the enzyme was preincubated with 45 nL of the compounds or DMSO for 20 min. Compounds, dissolved in DMSO, were tested at 30 μM. […] No replicates were performed for each inhibitor in this experiment. The remaining experimental conditions were kept constant as described above. The ActivityBase program from IDBS provider (https://www.idbs.com) was used to process and analyze the data. Selection criteria for potential inhibitors in this screen required an inhibition percentage greater than the mean (calculated from the inhibition percentages of all the inhibitors) plus three standard deviations (SD). All compounds were purchased commercially and are >95% pure by HPLC.
To obtain IC50 data for screen-detected rLmLAP inhibitors at a single concentration, ten-point concentration–response curves were generated for selected inhibitors showing greater than mean ±3 SD inhibition. The curves were prepared in 384-well plates with a maximum concentration of 100 μM and 1:2 serial dilutions in DMSO (0.195–100 μM) using an ECHO 550 acoustic dispenser. All other experimental conditions were as described above for RapidFire-MS optimization. Three replicates of each concentration of inhibitor were evaluated. The IC50 value was calculated by nonlinear fitting of a four-parameter logistic function to the experimental data. Curve fitting and IC50 calculations were performed using IDBS ActivityBase XE version 9.2.0.106. Inhibitory activity was determined using the peak area ratio, calculated as the reaction product (STVIVR) divided by its internal standard (*LSTVIVR). The peak area ratio of the reaction without enzyme was defined as 100% inhibitory activity, and that of the complete reaction mixture was defined as 0% inhibitory activity. At least three replicates were generated for each hit compound.

[2] = system: L. donovani intracellular amastigotes; test: Leishmania donovani intracellular (intramacrophage) assay, single concentration; format: cell-based; conditions: Leishmania donovani, Macrophage, 96 h, intracellular amastigotes in macrophages, Hoechst imaging, read-out: Inhibition of L. donovani proliferation (%)
Protocol: The effect of the compounds selected as inhibitors of rLmLAP on the proliferation of L. donovani amastigotes was evaluated at a concentration of 50 μM. Macrophage cultures (ECACC, catalog number: 88081201) were used as host cells. Parasites were incubated with 4.27× 10^7 macrophages, at a multiplicity of infection (MOI) of 5, at 37 °C with 5% CO2, overnight in DMEM medium supplemented with 4.5 g/L glucose and glutamine and 10% FBS, in a Millicell HY T-600 three-layer culture flask (Merck Millipore, Solna, Sweden). […] Macrophages were incubated for another 24 h in the above conditions with 133 μL of fresh DMEM medium prewarmed at 37 °C and supplemented with 10% FBS to obtain a high count of intracellular amastigotes.
Forty-two hours after macrophage infection, compounds (50 μM, 250 nL in DMSO) were dispensed using LabCyte ECHO into each well of 384-well dark flat bottom plates (Corning, New York, USA). The plates were incubated at 37 °C, 5% CO2, for 4 h (without compounds, with DMSO, to determine the initial level of infection) and for 96 h (with and without compounds).

Chain of rLmLAP (Q7KF27 entry or part of it): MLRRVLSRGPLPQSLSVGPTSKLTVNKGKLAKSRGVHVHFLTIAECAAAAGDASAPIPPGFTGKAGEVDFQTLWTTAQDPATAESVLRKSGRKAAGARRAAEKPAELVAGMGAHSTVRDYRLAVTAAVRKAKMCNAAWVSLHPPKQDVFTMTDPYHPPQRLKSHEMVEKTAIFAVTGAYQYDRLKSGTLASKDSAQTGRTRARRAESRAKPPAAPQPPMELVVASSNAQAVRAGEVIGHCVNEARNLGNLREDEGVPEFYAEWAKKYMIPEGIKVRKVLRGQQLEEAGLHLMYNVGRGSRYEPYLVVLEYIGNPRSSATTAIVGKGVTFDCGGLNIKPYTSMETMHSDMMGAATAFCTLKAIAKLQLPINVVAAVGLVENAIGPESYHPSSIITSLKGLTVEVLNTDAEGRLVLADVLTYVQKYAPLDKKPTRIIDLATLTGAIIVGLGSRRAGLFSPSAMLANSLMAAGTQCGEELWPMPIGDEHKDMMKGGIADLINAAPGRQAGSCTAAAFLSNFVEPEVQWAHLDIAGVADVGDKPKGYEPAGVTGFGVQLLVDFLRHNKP

Compound | IC50 [1] | inhibition at 50 µM [2] | inhibition at 30 µM ([1]; single-point high-throughput screen at 30 μM, read-out: Inhibition of rLmLAP in the screening)
CC(C)C[C@H](NC(=O)[C@@H](O)[C@H](N)Cc1ccccc1)C(=O)O [Bestatin, reference compound] | 6 µM and 6.1 µM |  | 
Cc1cc(C(=O)N(Cc2ccco2)Cc2cc3ccc(Cl)cc3nc2N2CCCC2)n(C)n1 [DDD00092594] | 36.3 ± 3.3 µM | 19.9 ± 1.3% | 
N#CC(=Cc1cn(Cc2ccc(C(=O)O)o2)c2ccccc12)c1ccc(F)cc1 [DDD00092624] | 35.2 ± 3.2 µM | 7 ± 1% | 
N#CC(=Cc1cn(Cc2ccc(C(=O)O)o2)c2ccccc12)c1nc2ccccc2[nH]1 [DDD00092640] | 20.2 ± 1.1 µM | 0% | 
CS(=O)(=O)Nc1cc2ccccc2cc1C(=O)O [DDD00095117] | 19 ± 1 µM | 0% | 
COc1ccc(S(=O)(=O)N2Cc3ccccc3CC2C(=O)O)cc1 (stereo not shown) [DDD00095849] | 60 ± 5 µM | 12.7 ± 1.5% | 
Cc1ccc(C(=O)O)cc1S(=O)(=O)Nc1cccc(C2SCCS2)c1 [DDD00096698] | 50 ± 4 µM | 0% | ~65%
O=C(O)c1ccc(-c2nccs2)s1 [DDD00097905] | 37.1 ± 3.3 µM | 0% | 
